Experiments:
skin fibroblasts = assay: Mitochondrial activity: maximal oxygen consumption rate (OCR), Seahorse XF cell mitochondrial stress test; format: cell-based
From the text: Specifically, the Seahorse XF Pro analyzer equipment from Agilent was used, and the mitochondrial activity (ATP energy production efficiency), i.e., the maximal oxygen consumption rate (OCR), was observed according to the standard protocol provided with the Seahorse XF cell mitochondrial stress measurement kit provided by the company (FIG. 2).

[1] = system: mitophagy marker genes (VDAC, Parkin, PINK); assay: Expression of mitophagy marker genes (VDAC, Parkin, PINK) by RT-PCR; format: cell-based; settings: fibroblasts, hydrocortisone 10 μM and MELASOLV 5.5 μg/ml for 24 hours; FIGS. 3 to 5
Description: Fibroblasts were seeded in 10 cm^2 cell culture dishes at a concentration of 3×10^5 cells/dish and cultured in 10 ml of minimum essential medium eagle (MEM) medium containing 10% fetal bovine serum (FBS) and 1% penicillin streptomycin. After 24 hours, the cells reached approximately 70%, and the cells were treated with (1) DMSO (control), (2) hydrocortisone (10 μM) alone, or (3) hydrocortisone (10 μM) and MELASOLV™ (5.5 μg/ml) for 24 hours.
RNA was extracted with easy-BLUE (INTRON) reagent. cDNA samples were generated from 0.5 μg of RNA using PrimeScript RT reagent Kit. The generated cDNA was amplified using ACCUPOWER™ PCR Premix. The PCR products were further analyzed using PCR Thermal Cycler Dice.
It was confirmed through a […] in the expression of mitophagy marker genes (VDAC, Parkin, PINK) whether it contributes to the activation of mitophagy which removes unnecessary elements from mitochondria.

[2] = hydrocortisone 10 uM 24 hours, MELASOLV 5 ppm 24 hours, FIG. 2

SMILES | maximal respiration (OCR) compared to the control group not treated with anything (skin fibroblasts; [2]) | maximal respiration (maximal oxygen consumption rate, OCR) compared to treatment with only hydrocortisone (skin fibroblasts; [2]) | cell respiration rate (OCR) reduced by hydrocortisone, effect of treatment (skin fibroblasts; hydrocortisone 10 uM, MELASOLV 5 ppm 24 hours) | expression of mitophagy genes (VDAC, Parkin, PINK) [1] | cell respiration rate (OCR) compared to the control group (Ctrl) (skin fibroblasts; hydrocortisone 10 uM 24 hours alone (stress-induced condition))
COc1cc(/C=C/C(=O)Oc2cc(C)ccc2C(C)C)cc(OC)c1OC [MELASOLV™, (5-methyl-2-propan-2-ylphenyl) (E)-3-(3,4,5-trimethoxyphenyl) prop-2-enoate] | increased higher | statistically significantly higher | recovered | increased | –
C[C@]12CCC(=O)C=C1CC[C@@H]1[C@@H]2[C@@H](O)C[C@@]2(C)[C@H]1CC[C@]2(O)C(=O)CO [hydrocortisone, reference compound] | – | – | – | – | reduced

Source: patent US20250082557A1, “COMPOSITION FOR ENHANCING SKIN VITALITY CONTAINING A THYMOL ESTER-BASED COMPOUND” (Amorepacific Corporation, priority 2023, published 2025)
